Laboratory results as given in article PMC6713216, “Dual-target anti-Alzheimer’s disease agents with both iron ion chelating and monoamine oxidase-B inhibitory activity” (Journal of Enzyme Inhibition and Medicinal Chemistry, 2019).
Read-outs that look alike come from different tables or passages of the source. Marks after values point to notes of the source that are not given here.

Assays:
[1] = pKa determination by automatic spectrophotometric titration; assay type: physicochemical; details: DMSO:KCl (0.1 M) = 2:3 (V/V), 25 °C; for pKa: DMSO/0.1 M KCl 2:3 (V/V) solution
Description: (§1) The automatic titration system used in the test consisted of an automatic titrator, a luminescence 759 s UV-Vis spectrophotometer, and a pH Meter (Mettler Toledo InLab Expert PRO/Mettler Toledo InLab Science). All instruments are controlled by a computer program.
(§2) The testing solution (2:3 DMSO/KCl (0.1 M), V/V) was maintained at 25 °C using a TP-3A temperature controller. The cuvette is mounted on a spectrophotometer. The E0 and s of the pH Meter were calibrated by three standard solutions (pH = 6.86, 9.18, 4.00). KCl solution (0.1 M) was used to maintain the ionic strength. For the Fe(III) affinity evaluation, the ratio of compounds to iron ion was kept at 1.1:1 (n/n) when Logβ1 was measured; the ratio of compounds to iron ion was kept at 5:1 (n/n) when Logβ2 and Logβ3 were tested.
The titration was performed in a 50 mm path length cuvette. 45 ml KCl (0.1 M) solution, 40 μL of saturated EDTA solution were added to the cuvette. The pH value of the solution was acidified to 2.0 with hydrochloric acid (1.5 M). Then 20 μL of test compound DMSO solution (30 μM/L) was added and stirred vigorously. By adding KOH solution (0.1 M) from the automatic buret, the pH value of the solution was increased by 0.1. […] Adding KOH solution (0.1 M) and repeated the automatic process until the specified endpoint of pH value was reached. All data were recorded internally by the Visual Basic program, and the test results are analysed by the HypSpec2014 program.

[2] = Determination of iron(III) affinity (Logβ1, Logβ2, Logβ3) by spectrophotometric titration; assay type: physicochemical; details: DMSO:KCl (0.1 M) = 2:3 (V/V), 25 °C; for Logβ1: compound:iron 1.1:1; for Logβ2 / Logβ3: compound:iron 5:1
Description: as §1, §2
A 45 ml KCl (0.1 M) solution was added to the cuvette (50 mm) and the pH value was acidified to 2.1. Then 30 μM DMSO solution of the testing compound and 60 μL acidic solution of FeCl3 (15 mM) were added separately, and the mixture was vigorously stirred. After the absorbance value is stabilised, a certain amount of HCl solution (4 M) was added by the automatic buret to reduce the pH of the solution by 0.1. After the system was equilibrated, the spectral scan was performed once after 20 min. This protocol was repeated until the specified endpoint of the pH value was reached. All data was recorded with the internal Visual Basic program, HypSpec2014 program was utilised for the data analysis.
Similarly, 45 ml KCl (0.1 M) solution was added to the cuvette (50 mm) and the pH value was acidified to 2.1. Then 30 μM DMSO solution of the testing compound and 60 μL acidic solution of FeCl3 (15 mM) were added separately, and the mixture was vigorously stirred. After the absorbance value is stabilised, a certain amount of KOH solution (0.1 M) was added by the automatic buret to increase the pH of the solution by 0.1. After the system was equilibrated, the spectral scan was performed once after 5 min. This protocol was repeated until the specified endpoint of the pH value was reached. All data were recorded with the internal Visual Basic program, HypSpec2014 program was utilised for the data analysis[5]^,[21]^,[22].

[3] = Calculation of pFe3+ by HySS software from pKa and logβ values; assay type: physicochemical
Description: The values of pFe^3+ were calculated by HySS software according to the results of pKa1, pKa2, logβ1, logβ2, and logβ3 determined by the above methods. The basic parameters were set as follows: FeOH = –2.563, Fe(OH)2 = –6.205, Fe(OH)3 = –15.1, Fe2(OH)2 = –2.843, Fe3(OH)4 = –6.059, Fe(OH)4 = –21.883[23].

[4] = parameters: method as in ref 17 = [17]; 17 Li Z-S , Qiao R-P , Yang Z-J , et al.  . Tetrahedron Asymmetry 2006; 17 : 1056 – 61 .; details: cited from earlier work
[5] = parameters: method as in ref 17 = [17]; 17 Li Z-S , Qiao R-P , Yang Z-J , et al. One-step synthesis of novel tricyclic isomeric azidonucleosides . Tetrahedron Asymmetry 2006; 17 : 1056 – 61 .; details: cited from earlier work
[6] = Determination of iron(III) affinity (Logβ1, Logβ2, Logβ3) by spectrophotometric titration; assay type: physicochemical; details: measured in 0.1 M KCl solution
[7] = parameters: method as in ref 17 = [17]; 17 Li Z-S , Qiao R-P , Yang Z-J , et al. One-step synthesis of novel tricyclic isomeric azidonucleosides . Tetrahedron Asymmetry 2006; 17 : 1056 – 61 .; details: cited from earlier work; remark: listed apart in the source
Human MAO-B = molecular target: T1, Human MAO-B (Homo sapiens, UniProt P27338); assay: Determination of human MAO-B inhibitory activity (Monoamine Oxidase Assay Kit, fluorescence); assay type: biochemical; details: for inhibition at 1 µM: read-out: Inhibitory rate (%) 1 μM; for inhibition at 10 µM: compound at 10 μM, read-out: Inhibitory rate (%) 10 μM
T1 construct: purchased Sigma-Aldrich
T1 sequence (P27338 1-520): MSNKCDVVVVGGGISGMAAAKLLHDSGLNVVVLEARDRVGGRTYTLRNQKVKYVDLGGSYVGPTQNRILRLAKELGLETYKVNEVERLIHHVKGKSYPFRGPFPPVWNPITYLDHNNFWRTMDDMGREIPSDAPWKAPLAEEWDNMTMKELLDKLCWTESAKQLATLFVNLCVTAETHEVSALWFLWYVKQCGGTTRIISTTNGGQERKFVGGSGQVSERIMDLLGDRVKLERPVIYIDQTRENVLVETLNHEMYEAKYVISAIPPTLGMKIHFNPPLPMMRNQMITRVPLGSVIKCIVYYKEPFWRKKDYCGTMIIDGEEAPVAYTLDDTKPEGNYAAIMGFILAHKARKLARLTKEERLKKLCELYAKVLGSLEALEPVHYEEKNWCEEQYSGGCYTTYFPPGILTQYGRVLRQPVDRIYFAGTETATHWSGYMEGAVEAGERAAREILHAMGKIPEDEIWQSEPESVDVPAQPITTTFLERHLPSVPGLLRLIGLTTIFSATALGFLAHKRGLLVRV
Description: Human MAO-B (5 mg/mL) was purchased from Sigma-Aldrich and was pre-aliquoted and stored at -70 °C. 200 μL enzymatic reactions were diluted in 2 ml microcentrifuge tubes by potassium phosphate buffer (Assay Buffer, pH 7.4) which have been provided by Sigma-Aldrich Monoamine Oxidase Assay Kit. The final volumes of the reactions were 100 μL and contained 45 μL MAO-B (0.0075 mg/mL), included 5 μL different concentrations of the testing inhibitors (10 μM, 1 μM), and 50 μL Master Reaction, p-Tyramine, HRP Enzyme and Dye Reagent. Stock solutions of the compounds were prepared in DMSO.

[8] = pKa determination by automatic spectrophotometric titration; assay type: physicochemical; details: 0.1 M KCl solution, Figure 2; 0.1 M KCl at 25 °C; read-out: pKa1 (Figure 2, printed as pH at curve crossing)
[9] = DMSO:KCl (0.1 M) = 2:3 (V/V), calculated by HySS from pKa1, pKa2, logβ1-3

| pKa ([1]; read-out: pKa1) | pKa ([1]; read-out: pKa2) | inhibition at 1 µM (Human MAO-B; compound at 1 μM) [%] | inhibition at 10 µM (Human MAO-B) [%] | melting point [°C] | SMILES | Logβ1 [2] | Logβ2 [2] | Logβ3 [2] | pFe3+ [3, 9] | also measured |
| --- | --- | --- | --- | --- | --- | --- | --- | --- | --- | --- |
|  |  |  |  |  | Cc1c(O)c(=O)ccn1C [Deferiprone] | 14.83 | 25.7 | 33.6 | 17.4 | pKa1 [1]: 3.68; pFe3+ ([3]; data measured in 0.1 M KCl solution): 20.1^b; pKa2 [4]: 9.78^c; Logβ1 [5]: 15.03^c; Logβ2 [5]: 27.42^c; Logβ3 [5]: 37.35^c; Logβ2 [6]: 27.0^b; Logβ3 [6]: 36.4^b; pFe3+ [7]: 20.7^c |
| 2.9 | 9.6 | > 30 | 94 | 258 to 261 | CCc1c(O)c(=O)ccn1CCn1cc(COc2cc3ccccc3oc2=O)nn1 [Compound 27i, 2-ethyl-3-hydroxy-1–(2-(4-(((2-oxo-2H-chromen-3-yl)oxy)methyl)-1H-1,2,3-triazol-1-yl)ethyl)pyridin-4(1H)-one] | 14.2 | 25.4 | 32.8 | 17.0 |  |
| 3.2 | 9.7 | > 20 | 89.5 | 195 to 198 | CCc1c(O)c(=O)ccn1CCCn1cc(COc2cc(=O)oc3ccccc23)nn1 [Compound 27g, 2-ethyl-3-hydroxy-1–(3-(4-(((2-oxo-2H-chromen-4-yl)oxy)methyl)-1H-1,2,3-triazol-1-yl)propyl)pyridin-4(1H)-one] | 14.6 | 25.6 | 33.1 | 17.1 |  |
| 3.4 | 10 | 9.67 | 98.3 | 263 to 265 | Cc1cc(=O)c(O)c(C)n1CCCn1cc(COc2ccc3ccc(=O)oc3c2)nn1 [Compound 27d, 3-hydroxy-2,6-dimethyl-1–(3-(4-(((2-oxo-2H-chromen-7-yl)oxy)methyl)-1H-1,2,3-triazol-1-yl)propyl)pyridin-4(1H)-one] | 14.9 | 26.3 | 34.8 | 17.6 |  |
| 3.3 | 9.8 | 62 | 88.8 | 192 to 195 | CCc1c(O)c(=O)ccn1CCCn1cc(COc2cc3ccccc3oc2=O)nn1 [Compound 27j, 2-ethyl-3-hydroxy-1–(3-(4-(((2-oxo-2H-chromen-3-yl)oxy)methyl)-1H-1,2,3-triazol-1-yl)propyl)pyridin-4(1H)-one] | 14.6 | 25.7 | 33.5 | 17.1 | IC50 (Human MAO-B): 860 nM; Inhibitory rate (%) 1 μM (Human MAO-B; compound at 1 μM, 1 µM): 62.43%; pKa [8]: 3.4 |
